Data as given in ChEMBL document CHEMBL1137598, “Synthesis and structure-activity relationship of N-acyl-Gly-, N-acyl-Sar- and N-blocked-boroPro inhibitors of FAP, DPP4, and POP” (Bioorg Med Chem Lett, 2007).

Assays:
Prolyl endopeptidase = molecular target: T1, Prolyl endopeptidase (Homo sapiens, UniProt P48147); experiment: Inhibitory constant against POP
T1 sequence (P48147 whole entry): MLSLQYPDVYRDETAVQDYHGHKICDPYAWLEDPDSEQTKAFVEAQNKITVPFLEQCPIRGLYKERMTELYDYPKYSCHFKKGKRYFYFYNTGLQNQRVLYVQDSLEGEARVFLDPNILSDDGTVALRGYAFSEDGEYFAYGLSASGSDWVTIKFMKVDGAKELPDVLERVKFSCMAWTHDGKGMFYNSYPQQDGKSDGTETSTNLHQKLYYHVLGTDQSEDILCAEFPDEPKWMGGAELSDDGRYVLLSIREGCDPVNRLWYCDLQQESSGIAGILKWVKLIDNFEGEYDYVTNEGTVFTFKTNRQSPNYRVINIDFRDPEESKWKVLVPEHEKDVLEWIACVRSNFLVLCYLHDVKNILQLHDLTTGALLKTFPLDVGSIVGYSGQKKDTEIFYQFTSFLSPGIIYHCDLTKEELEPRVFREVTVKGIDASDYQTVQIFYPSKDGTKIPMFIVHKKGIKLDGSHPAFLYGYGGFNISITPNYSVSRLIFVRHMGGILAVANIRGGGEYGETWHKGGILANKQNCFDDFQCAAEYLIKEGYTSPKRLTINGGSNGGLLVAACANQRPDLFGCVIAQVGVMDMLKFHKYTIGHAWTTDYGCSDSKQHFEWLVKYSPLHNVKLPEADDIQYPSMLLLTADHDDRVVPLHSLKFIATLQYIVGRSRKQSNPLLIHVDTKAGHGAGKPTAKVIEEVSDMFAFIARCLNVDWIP

[1] = molecular target: Dipeptidyl peptidase 4 (Homo sapiens) (UniProt P27487); experiment: Inhibition of DPP-4 at 500uM
Dipeptidyl peptidase 4 (Homo sapiens), sequence (P27487 whole entry, looked up): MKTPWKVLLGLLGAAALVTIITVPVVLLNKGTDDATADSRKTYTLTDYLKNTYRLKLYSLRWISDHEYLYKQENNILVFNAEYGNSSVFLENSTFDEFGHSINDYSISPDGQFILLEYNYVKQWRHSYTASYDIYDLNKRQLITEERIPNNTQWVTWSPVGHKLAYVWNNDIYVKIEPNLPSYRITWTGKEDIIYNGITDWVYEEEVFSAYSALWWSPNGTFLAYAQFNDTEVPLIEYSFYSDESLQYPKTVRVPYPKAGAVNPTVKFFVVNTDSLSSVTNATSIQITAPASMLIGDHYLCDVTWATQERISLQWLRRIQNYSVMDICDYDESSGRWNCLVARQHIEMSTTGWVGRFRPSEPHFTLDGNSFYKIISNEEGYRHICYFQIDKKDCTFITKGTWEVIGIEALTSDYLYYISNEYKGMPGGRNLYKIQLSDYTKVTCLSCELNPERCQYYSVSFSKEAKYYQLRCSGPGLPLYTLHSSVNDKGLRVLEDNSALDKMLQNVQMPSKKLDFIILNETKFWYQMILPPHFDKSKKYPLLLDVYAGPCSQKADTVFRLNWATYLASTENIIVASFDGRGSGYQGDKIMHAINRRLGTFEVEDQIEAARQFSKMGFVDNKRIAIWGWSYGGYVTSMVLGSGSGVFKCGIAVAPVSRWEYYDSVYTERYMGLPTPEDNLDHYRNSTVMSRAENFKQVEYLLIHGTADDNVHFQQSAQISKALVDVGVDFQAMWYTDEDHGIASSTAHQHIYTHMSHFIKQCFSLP

Ki (Prolyl endopeptidase) [nM] | inhibition [1] [%] | Structure (SMILES)
13 |  | CC(C)C(=O)N(C)CC(=O)N1CCC[C@H]1B(O)O
 | 17 | CC(=O)N[C@H](C)C(=O)N1CCC[C@H]1B(O)O
1360 |  | CS(=O)(=O)NCC(=O)N1CCC[C@H]1B(O)O
